Source: BindingDB's records for patent US12178809 (Boehringer Ingelheim International, 2024)

Legend:
[1] = target: T1, Amine oxidase [copper-containing] 3 (Homo sapiens, UniProt Q16853); assay: AOC3 Biochemical Assay
T1 sequence (Q16853 whole entry): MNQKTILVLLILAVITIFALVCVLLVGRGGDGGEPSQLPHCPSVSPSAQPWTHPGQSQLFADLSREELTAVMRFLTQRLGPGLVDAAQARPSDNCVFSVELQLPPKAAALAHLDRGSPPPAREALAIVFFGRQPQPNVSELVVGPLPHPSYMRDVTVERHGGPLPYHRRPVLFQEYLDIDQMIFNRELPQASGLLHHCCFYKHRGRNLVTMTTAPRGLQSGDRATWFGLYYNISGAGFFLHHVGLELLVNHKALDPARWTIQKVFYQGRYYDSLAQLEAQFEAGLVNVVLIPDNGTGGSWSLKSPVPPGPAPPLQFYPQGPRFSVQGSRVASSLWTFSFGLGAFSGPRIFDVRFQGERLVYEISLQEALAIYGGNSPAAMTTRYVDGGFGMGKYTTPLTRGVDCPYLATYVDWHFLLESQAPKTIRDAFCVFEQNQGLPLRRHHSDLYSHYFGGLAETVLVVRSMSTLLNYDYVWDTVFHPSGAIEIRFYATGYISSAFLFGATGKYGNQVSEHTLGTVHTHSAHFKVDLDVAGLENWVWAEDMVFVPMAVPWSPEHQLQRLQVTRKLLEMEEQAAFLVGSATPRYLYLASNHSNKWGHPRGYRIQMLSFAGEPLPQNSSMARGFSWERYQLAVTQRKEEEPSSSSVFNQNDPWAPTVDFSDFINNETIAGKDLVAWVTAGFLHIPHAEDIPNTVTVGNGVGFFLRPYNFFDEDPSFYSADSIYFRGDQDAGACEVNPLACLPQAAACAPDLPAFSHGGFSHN
Method: Recombinant CHO cells, overexpressing the human (1500 cells/well), mouse (1000 cells/well) or rat (500 cells/well) AOC3 enzyme are diluted in reaction buffer and added in a volume of 15 μL to the wells. After incubation for 20 minutes at 37° C., 2 μL of MAO substrate (dissolved in DMSO at 16 mM, adjusted to assay concentration in reaction buffer to a final assay concentration of 20 μM) is added and further incubated for 60 minutes at 37° C. The turnover of the substrate is determined by the addition of 20 μL of the detection-mix which was generated by the addition of reconstitution buffer with esterase (PROMEGA, #V1402) to the luciferine detection reagent (PROMEGA, #V1402).

[2] = target: T2, Amine oxidase [copper-containing] 2 (Homo sapiens, UniProt O75106); assay: AOC2 Biochemical Assay
T2 sequence (O75106 whole entry): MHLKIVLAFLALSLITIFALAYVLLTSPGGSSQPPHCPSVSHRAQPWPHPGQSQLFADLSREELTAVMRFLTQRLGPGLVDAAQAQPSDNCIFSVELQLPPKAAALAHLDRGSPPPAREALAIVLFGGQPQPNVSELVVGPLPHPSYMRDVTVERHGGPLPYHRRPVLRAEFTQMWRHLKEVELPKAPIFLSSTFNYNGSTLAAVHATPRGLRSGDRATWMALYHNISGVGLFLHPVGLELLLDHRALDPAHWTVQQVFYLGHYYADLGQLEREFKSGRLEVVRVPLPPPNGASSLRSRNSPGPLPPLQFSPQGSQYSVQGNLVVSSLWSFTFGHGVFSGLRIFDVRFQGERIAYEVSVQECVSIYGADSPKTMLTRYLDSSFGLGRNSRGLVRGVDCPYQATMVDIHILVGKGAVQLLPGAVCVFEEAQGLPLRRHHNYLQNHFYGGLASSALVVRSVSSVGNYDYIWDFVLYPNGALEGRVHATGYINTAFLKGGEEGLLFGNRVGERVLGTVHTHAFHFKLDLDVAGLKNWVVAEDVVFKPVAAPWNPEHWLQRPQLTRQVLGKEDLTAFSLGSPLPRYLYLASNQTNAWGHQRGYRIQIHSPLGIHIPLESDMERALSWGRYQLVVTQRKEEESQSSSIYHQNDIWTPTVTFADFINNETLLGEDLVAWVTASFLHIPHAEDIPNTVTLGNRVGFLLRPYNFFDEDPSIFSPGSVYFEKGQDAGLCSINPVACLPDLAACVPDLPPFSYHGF
Method: Cells are cultured for 3 days in EMEM culture medium containing 10% FCS (#04-00-1A, Biological Industries). After washing twice with ice cold PBS, cells are lysed by mechanic homogenation and cleared supernatants are shock frozen in liquid nitrogen and stored at −80° C.For the determination of AOC2 enzymatic activity cell lysates are thawed on ice and 1:1 diluted with reaction buffer. An Aliquot of 45 μL is added to the compound dilution and incubated for 30 min at 37° C.

[3] = target: T3, Diamine oxidase [copper-containing] (Homo sapiens, UniProt P19801); assay: AOC1 Biochemical Assay
T3 sequence (P19801 whole entry): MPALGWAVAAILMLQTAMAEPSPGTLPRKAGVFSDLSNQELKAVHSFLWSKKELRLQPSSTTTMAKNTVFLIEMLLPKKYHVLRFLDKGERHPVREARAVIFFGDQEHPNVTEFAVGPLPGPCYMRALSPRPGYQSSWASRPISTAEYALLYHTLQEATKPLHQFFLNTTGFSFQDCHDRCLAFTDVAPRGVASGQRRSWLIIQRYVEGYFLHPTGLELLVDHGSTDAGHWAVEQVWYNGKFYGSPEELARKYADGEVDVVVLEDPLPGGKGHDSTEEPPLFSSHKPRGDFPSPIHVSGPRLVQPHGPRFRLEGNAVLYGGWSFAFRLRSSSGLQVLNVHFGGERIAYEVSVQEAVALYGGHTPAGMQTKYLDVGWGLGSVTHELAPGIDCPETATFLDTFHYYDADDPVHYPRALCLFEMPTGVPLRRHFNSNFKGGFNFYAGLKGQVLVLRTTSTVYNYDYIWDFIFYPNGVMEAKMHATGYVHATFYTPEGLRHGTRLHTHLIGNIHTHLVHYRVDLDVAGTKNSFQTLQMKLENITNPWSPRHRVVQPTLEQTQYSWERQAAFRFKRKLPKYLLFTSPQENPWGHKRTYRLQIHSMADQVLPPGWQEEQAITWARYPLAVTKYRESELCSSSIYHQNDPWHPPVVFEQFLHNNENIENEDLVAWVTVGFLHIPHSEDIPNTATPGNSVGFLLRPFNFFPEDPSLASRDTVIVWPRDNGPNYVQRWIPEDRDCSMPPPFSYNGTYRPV
Method: An aliquot of 3 μL of the compound dilution is added to a 384 well plate (Optiplate, PS, flat bottom F, black, PERKIN ELMER, #6007270) in a DMSO concentration of 6.6%.An AOC1 enzyme aliquot (#8297-AO-010, R&D Systems) is thawed on ice, diluted in reaction buffer and added in a volume of 7 μL to the wells to give a final assay concentration of 1 ng/well. After incubation of inhibitor and enzyme for 30 minutes at 37° C., the enzymatic reaction is started with the addition of 10 μL of Amplex Red reaction mix (final assay concentration: 100 mM sodiumphosphate, 120 μM Amplex Red reagent (#A22177 Molecular Probes), 1.5 U/mL Horseradish Peroxidase (#P8375 Sigma-Aldrich), 200 μM putrescine (#P7505 Sigma-Alrdich), 0.05% Pluronic F-127 (#P3000MP Sigma-Aldrich), pH 7.4, 37° C.).After an incubation for 30 minutes at 37° C. the turnover of the substrate is determined directly (or after the addition of an excess of an amine-oxidase inhibitor) with a fluorescence reader (Ex 540 nm/Em 590 nm) like Envision 2104 Multilabel Reader (PERKIN ELMER).

IC50 [1]: 73 nM
IC50 [2]: 629 nM
IC50 [3]: > 50000 nM
Structure (SMILES): CC(C)(O)NC(=O)[C@H]1CCN(S(=O)(=O)c2ccc(OC/C(=C/F)CN)nc2)C1 [US12178809, Example 05]
